In patent US10759781B2, “Substituted guanidine derivatives” (UBE INDUSTRIES, LTD., priority 2015, dated 2020):
Counter-ions that a name gives are not always drawn.

Experiments:
Rat Plasma VAP-1 = biological target: T1, Rat Plasma VAP-1 (Rattus norvegicus, UniProt O08590); experiment: (Ex vivo) rat plasma VAP-1 inhibition test after oral administration of the compound; format: in vivo; settings: 3 hours after oral administration, SD male rats, read-out: inhibition ratio (plasma VAP-1, ex vivo)
T1 construct: from tissue; host or cells: plasma of SD male rats (7-12 weeks old) after oral dosing
T1 sequence (O08590 28-763 limits assumed): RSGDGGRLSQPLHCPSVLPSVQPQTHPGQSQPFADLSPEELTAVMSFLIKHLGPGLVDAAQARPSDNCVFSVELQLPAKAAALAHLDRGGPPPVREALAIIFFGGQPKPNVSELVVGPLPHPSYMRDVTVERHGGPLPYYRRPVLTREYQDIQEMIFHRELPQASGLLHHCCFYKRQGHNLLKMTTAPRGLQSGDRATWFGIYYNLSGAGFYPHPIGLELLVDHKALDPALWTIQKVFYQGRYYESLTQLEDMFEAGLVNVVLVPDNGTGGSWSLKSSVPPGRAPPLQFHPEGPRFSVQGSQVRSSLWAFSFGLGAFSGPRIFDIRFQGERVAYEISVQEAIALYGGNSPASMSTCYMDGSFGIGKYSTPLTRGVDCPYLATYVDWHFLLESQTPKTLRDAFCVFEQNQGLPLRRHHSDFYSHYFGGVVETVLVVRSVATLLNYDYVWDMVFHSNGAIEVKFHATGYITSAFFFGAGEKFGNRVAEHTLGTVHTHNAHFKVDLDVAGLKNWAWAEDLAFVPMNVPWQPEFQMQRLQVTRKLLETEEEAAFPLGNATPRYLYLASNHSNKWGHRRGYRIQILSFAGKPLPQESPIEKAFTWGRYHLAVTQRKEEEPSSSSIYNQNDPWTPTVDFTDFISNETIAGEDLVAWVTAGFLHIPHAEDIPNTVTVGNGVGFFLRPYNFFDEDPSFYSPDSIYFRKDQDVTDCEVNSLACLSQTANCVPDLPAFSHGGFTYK
Protocol: (Ex Vivo) Rat Plasma VAP-1 Inhibition Test after Oral Administration of the Compound
The compound was orally administered (0.3-10 mg/kg) to 7-12 week old SD male rats in the non-fasting state. Under anesthesia, the blood was collected in heparin tubes from the jugular vein before the administration and 3, 8 and 24 hours after the administration. The blood was centrifuged at 14000 rpm for 10 minutes to get plasma. The VAP-1 enzyme activity in the plasma was measured by radiochemical enzyme assay.
The radiochemical enzyme assay was conducted by modifying the method of P. H. Yu et al. (Diabetologia 40 1243 (1997)). ^14C-benzylamine (2.5 μM) was added to the obtained plasma, and was incubated at 37° C. for 3 hours. The reaction was terminated by the addition of 100 μL of 2 M citric acid solution to the reaction solution. The oxidative product was extracted using a toluene/ethyl acetate mixture and the radioactivity was measured with a liquid scintillation counter. The inhibition ratio of the compound was calculated using the following equation. Inhibition ratio={1−[Plasma VAP-1 activity after administration of the compound]/[Plasma VAP-1 activity before administration]}×100

Human VAP-1 enzyme = biological target: T2, Human VAP-1 enzyme (Homo sapiens, UniProt Q16853); experiment: Human VAP-1 enzyme inhibition test; format: biochemical; settings: 1 h; compound 30 nM; 14C-benzylamine 100 μM; read-out: inhibition ratio (human VAP-1 enzyme)
T2 construct: purchased R&D Systems, Inc
T2 sequence (Q16853 1-763): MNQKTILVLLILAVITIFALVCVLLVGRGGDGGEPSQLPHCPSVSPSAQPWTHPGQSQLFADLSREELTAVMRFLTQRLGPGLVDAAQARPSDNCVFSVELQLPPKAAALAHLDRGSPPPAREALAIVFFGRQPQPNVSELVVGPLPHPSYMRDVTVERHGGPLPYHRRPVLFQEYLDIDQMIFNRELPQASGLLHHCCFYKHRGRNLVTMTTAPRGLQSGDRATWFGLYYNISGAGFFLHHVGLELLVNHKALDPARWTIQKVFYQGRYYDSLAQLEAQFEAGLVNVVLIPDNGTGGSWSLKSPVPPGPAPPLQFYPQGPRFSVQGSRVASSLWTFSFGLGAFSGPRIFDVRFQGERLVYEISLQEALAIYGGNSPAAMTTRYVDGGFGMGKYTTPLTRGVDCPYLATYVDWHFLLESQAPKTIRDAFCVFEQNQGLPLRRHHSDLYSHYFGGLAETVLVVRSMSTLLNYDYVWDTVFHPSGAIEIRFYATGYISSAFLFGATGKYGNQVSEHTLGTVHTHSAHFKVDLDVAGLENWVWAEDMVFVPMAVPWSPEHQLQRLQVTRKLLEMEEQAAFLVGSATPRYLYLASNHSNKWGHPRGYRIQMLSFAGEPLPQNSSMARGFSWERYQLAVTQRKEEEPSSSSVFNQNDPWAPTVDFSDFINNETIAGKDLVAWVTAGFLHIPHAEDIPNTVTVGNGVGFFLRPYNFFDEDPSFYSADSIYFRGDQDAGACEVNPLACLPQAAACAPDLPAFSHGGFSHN
Protocol: Human VAP-1 enzyme inhibition test
This test was conducted by modifying the method of P. H. Yu et al. (Diabetologia 40 1243 (1997)). Human VAP-1 enzyme (R&D Systems, Inc.) was pre-incubated in a 96-well plate with the compound dissolved in dimethylsulfoxide at room temperature for 20 minutes. Next, in a solution to the final volume of 200 μL, the enzyme reaction solution was incubated with ^14C-benzylamine (final concentration 100 μM) at 37° C. for 1 hour. The reaction was terminated by the addition of 100 μL of 2 M citric acid solution to the reaction solution. The oxidative product was extracted using a toluene/ethyl acetate mixture and the radioactivity was measured with a liquid scintillation counter. The inhibition ratio of the compound was calculated using the following equation. Inhibition ratio={1−[VAP-1 enzyme activity after treatment with the compound]/[VAP-1 enzyme activity in the presence of dimethylsulfoxide alone without the compound]}×100

## CON=C1CCN(c2ncc(-c3cccc(COC(=O)NC(=N)N)c3F)cn2)CC1 [Example 51, 2-Fluoro-3-{2-[4-(methoxyimino)piperidin-1-yl]pyrimidin-5-yl}benzyl carbamimidoylcarbamate]
Rat Plasma VAP-1
  inhibition in vivo at 0.3 mg/kg: ≥ 50%

## CCON=C1CCN(c2ncc(-c3cccc(COC(=O)NC(=N)N)c3F)cn2)CC1 [Example 53, 3-{2-[4-(Ethoxyimino)piperidin-1-yl]pyrimidin-5-yl}-2-fluorobenzyl carbamimidoylcarbamate]
Rat Plasma VAP-1
  inhibition in vivo at 0.3 mg/kg: ≥ 50%

## COCCN1CC(ON=C2CN(c3ncc(-c4cccc(COC(=O)NC(=N)N)c4F)cn3)C2)C1 [Example 147, 2-Fluoro-3-{2-[3-({[1-(2-methoxyethyl)azetidin-3-yl]oxy}imino)azetidin-1-yl]pyrimidin-5-yl}benzyl carbamimidoylcarbamate]
Human VAP-1 enzyme
  inhibition at 0.03 µM: ≥ 50%

## N=C(N)NC(=O)OCc1cccc(-c2cnc(N3CC(=NOC4CN(CCF)C4)C3)nc2)c1F [Example 148, 2-Fluoro-3-{2-[3-({[1-(2-fluoroethyl)azetidin-3-yl]oxy}imino)azetidin-1-yl]pyrimidin-5-yl}benzyl carbamimidoylcarbamate]
Human VAP-1 enzyme
  inhibition at 0.03 µM: ≥ 50%

## CCOC(=O)CCCON=C1CCN(c2ncc(-c3cccc(COC(=O)NC(=N)N)c3F)cn2)CC1 [Example 152, Ethyl 4-[({1-[5-(3-{[(carbamimidoylcarbamoyl)oxy]methyl}-2-fluorophenyl)pyrimidin-2-yl]piperidin-4-ylidene}amino)oxy]butanoate]
Human VAP-1 enzyme
  inhibition at 0.03 µM: ≥ 50%

## CN(CCON=C1CCN(c2ncc(-c3cccc(COC(=O)NC(=N)N)c3F)cn2)CC1)S(C)(=O)=O [Example 157, 2-Fluoro-3-[2-(4-{[2-(N-methylmethylsulfonamido)ethoxy]imino}piperidin-1-yl)pyrimidin-5-yl]benzyl carbamimidoylcarbamate hydrochloride]
Human VAP-1 enzyme
  inhibition at 0.03 µM: ≥ 50%

## CNCCON=C1CCN(c2ncc(-c3cccc(COC(=O)NC(=N)N)c3F)cn2)CC1 [Example 162, 2-Fluoro-3-[2-(4-{[2-(methylamino)ethoxy]imino}piperidin-1-yl)pyrimidin-5-yl]benzyl carbamimidoylcarbamate dihydrochloride]
Human VAP-1 enzyme
  inhibition at 0.03 µM: ≥ 50%

## N=C(N)NC(=O)OCc1cccc(-c2cnc(N3CCC(=NOCCN)CC3)nc2)c1F [Example 164, 3-(2-{4-[(2-Aminoethoxy)imino]piperidin-1-yl}pyrimidin-5-yl)-2-fluorobenzyl carbamimidoylcarbamate]
Human VAP-1 enzyme
  inhibition at 0.03 µM: ≥ 50%

## N=C(N)NC(=O)OCc1cccc(-c2cnc(N3CCC(=NOCc4cnn(C5CCCCO5)c4)CC3)nc2)c1F (centres unmarked) [Example 172, 2-Fluoro-3-{2-[4-({[1-(tetrahydropyran-2-yl)-1H-pyrazol-4-yl]methoxy}imino)piperidin-1-yl]pyrimidin-5-yl}benzyl carbamimidoylcarbamate]
Human VAP-1 enzyme
  inhibition at 0.03 µM: ≥ 50%

## N=C(N)NC(=O)OCc1cccc(-c2cnc(N3CCC(=NOCCN4CCOC4=O)CC3)nc2)c1F [Example 179, 2-Fluoro-3-[2-(4-{[2-(2-oxooxazolidin-3-yl)ethoxy]imino}piperidin-1-yl)pyrimidin-5-yl]benzyl carbamimidoylcarbamate]
Human VAP-1 enzyme
  inhibition at 0.03 µM: ≥ 50%

## N=C(N)NC(=O)OCc1cccc(-c2cnc(N3CCC(=NOCCN4CCOCC4=O)CC3)nc2)c1F [Example 180, 2-Fluoro-3-[2-(4-{[2-(3-oxomorpholino)ethoxy]imino}piperidin-1-yl)pyrimidin-5-yl]benzyl carbamimidoylcarbamate]
Human VAP-1 enzyme
  inhibition at 0.03 µM: ≥ 50%

## CON=C1CN(c2ncc(-c3cccc(COC(=O)NC(=N)N)c3F)cn2)C1 [Example 184, 2-Fluoro-3-{2-[3-(methoxyimino)azetidin-1-yl]pyrimidin-5-yl}benzyl carbamimidoylcarbamate 1/2 L-tartrate]
Human VAP-1 enzyme
  inhibition at 0.03 µM: ≥ 50%

## CCON=C1CN(c2ncc(-c3cccc(COC(=O)NC(=N)N)c3F)cn2)C1 [Example 188, 3-{2-[3-(Ethoxyimino)azetidin-1-yl]pyrimidin-5-yl}-2-fluorobenzyl carbamimidoylcarbamate 1/2 L-tartrate]
Human VAP-1 enzyme
  inhibition at 0.03 µM: ≥ 50%

## O=C(O)C(O)C(O)C(=O)O.[2H]C([2H])([2H])ON=C1CN(c2ncc(-c3cccc(COC(=O)NC(=N)N)c3F)cn2)C1 [Example 192, 2-Fluoro-3-(2-{3-[(methoxy-d3)imino]azetidin-1-yl}pyrimidin-5-yl)benzyl carbamimidoylcarbamate 1/2 L-tartrate]
Human VAP-1 enzyme
  inhibition at 0.03 µM: ≥ 50%

## O=C(O)/C=C\C(=O)O.[2H]C([2H])([2H])ON=C1CN(c2ncc(-c3cccc(COC(=O)NC(=N)N)c3F)cn2)C1 [Example 194, 2-Fluoro-3-(2-{3-[(methoxy-d3)imino]azetidin-1-yl}pyrimidin-5-yl)benzyl carbamimidoylcarbamate maleate]
Human VAP-1 enzyme
  inhibition at 0.03 µM: ≥ 50%

## O=C(O)CCC(=O)O.[2H]C([2H])([2H])ON=C1CN(c2ncc(-c3cccc(COC(=O)NC(=N)N)c3F)cn2)C1 [Example 195, 2-Fluoro-3-(2-{3-[(methoxy-d3)imino]azetidin-1-yl}pyrimidin-5-yl)benzyl carbamimidoylcarbamate 1/2 succinate]
Human VAP-1 enzyme
  inhibition at 0.03 µM: ≥ 50%

## N=C(N)NC(=O)OCc1cccc(-c2cnc(N3CC(=NOCCF)C3)nc2)c1F [Example 196, 2-Fluoro-3-(2-{3-[(2-fluoroethoxy)imino]azetidin-1-yl}pyrimidin-5-yl)benzyl carbamimidoylcarbamate 1/2 L-tartrate]
Human VAP-1 enzyme
  inhibition at 0.03 µM: ≥ 50%

## O=C(O)C(O)C(O)C(=O)O.[2H]C([2H])([2H])ON=C1CN(c2ncc(-c3cccc(COC(=O)NC(=N)N)c3F)cc2F)C1 [Example 204, 2-Fluoro-3-(5-fluoro-6-{3-[(methoxy-d3)imino]azetidin-1-yl}pyridin-3-yl)benzyl carbamimidoylcarbamate 1/2 L-tartrate]
Human VAP-1 enzyme
  inhibition at 0.03 µM: ≥ 50%

## O=C(O)/C=C\C(=O)O.[2H]C([2H])([2H])ON=C1CN(c2ncc(-c3cccc(COC(=O)NC(=N)N)c3F)cc2F)C1 [Example 206, 2-Fluoro-3-(5-fluoro-6-{3-[(methoxy-d3)imino]azetidin-1-yl}pyridin-3-yl)benzyl carbamimidoylcarbamate maleate]
Human VAP-1 enzyme
  inhibition at 0.03 µM: ≥ 50%

## O=C(O)CCC(=O)O.[2H]C([2H])([2H])ON=C1CN(c2ncc(-c3cccc(COC(=O)NC(=N)N)c3F)cc2F)C1 [Example 207, 2-Fluoro-3-(5-fluoro-6-{3-[(methoxy-d3)imino]azetidin-1-yl}pyridin-3-yl)benzyl carbamimidoylcarbamate 1/2 succinate]
Human VAP-1 enzyme
  inhibition at 0.03 µM: ≥ 50%
